For 26 molecules, Ki results are on record in patent publication US7125990B2, “Imidazolyl derivatives as corticotropin releasing factor inhibitors” (Bristol-Myers Squibb COmpany, priority 2001, dated 2006).

In the test the target is T1, CRF1 receptors (Homo sapiens, UniProt P34998).
T1 construct: endogenous in cells; host or cells: IMR-32 cells, transformed with 2.5 µM 5'-bromo-2'-deoxyuridine for 10 days; membrane preparation
T1 sequence (P34998 24-415): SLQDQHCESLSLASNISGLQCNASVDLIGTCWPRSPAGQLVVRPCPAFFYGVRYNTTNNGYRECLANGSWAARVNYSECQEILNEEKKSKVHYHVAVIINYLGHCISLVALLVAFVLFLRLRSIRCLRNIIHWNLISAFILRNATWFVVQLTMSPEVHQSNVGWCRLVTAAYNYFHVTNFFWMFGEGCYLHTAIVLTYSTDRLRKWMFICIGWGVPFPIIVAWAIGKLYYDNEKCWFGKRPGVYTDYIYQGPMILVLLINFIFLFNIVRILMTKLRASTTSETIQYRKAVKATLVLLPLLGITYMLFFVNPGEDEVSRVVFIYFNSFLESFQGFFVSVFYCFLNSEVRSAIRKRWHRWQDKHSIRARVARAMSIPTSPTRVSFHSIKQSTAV
The experiment in a line: CRF1 receptor radioligand binding assay ([125I]-oCRF competition, IMR-32 cell membranes). Particulars: IMR-32 cell membranes, [125I]-oCRF 100 pM; read-out: Ki (CRF-1R). The method in brief:
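Buffer: Tris pH 7.2 with MgCl2, BSA, Triton X-100, aprotinin, leupeptin; reaction stopped with ice-cold wash and filtered. Nonspecific binding set with 10 μM oCRF.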

On to `CCCN(CCc1ccccc1)Cc1c(C(F)(F)F)nc2n(-c3c(C)cc(C)cc3C)c3ccccc3n12` [Example 161, Phenethyl-propyl-[2-trifluoromethyl-8-(2,4,6-trimethyl-phenyl)-8H-1,3a,8-triaza-cyclopenta[α]inden-3-ylmethyl]-amine], for which the inhibition constant Ki was below 1000 nM. Regarding `CCCN(CC1CCC1)C(=O)c1c(C)nc2n1CCCN2c1c(C)cc(C)cc1C` [Example 57, 2-Methyl-8-(2,4,6-trimethyl-phenyl)-5,6,7,8-tetrahydro-imidazo[1,2-a]pyrimidine-3-carboxylic acid cyclobutylmethyl-propyl-amide], the Ki is below 10000 nM. The value for `CCCN(CCC1CC1)Cc1c(CC)nc2n(-c3c(C)cc(C)cc3C)c3ncccc3n12` [Example 252, (2-Cyclopropyl-ethyl)-[2-ethyl-8-(2,4,6-trimethyl-phenyl)-8H-1,3a,7,8-tetraaza-cyclopenta[α]inden-3-ylmethyl]-propyl-amine] was below 1000 nM; that for `CCc1nc2n(c1C(=O)N(CCC1CC1)CCC(F)(F)F)CCN2c1c(C)cc(C)cc1C` [Example 17, 2-Ethyl-7-(2,4,6-trimethyl-phenyl)-6,7-dihydro-5H-imidazo[1,2-a]imidazole-3-carboxylic acid (2-cyclopropyl-ethyl)-(3,3,3-trifluoro-propyl)-amide] was below 1000 nM; that for `CCCN(CCC(F)(F)F)Cc1c(C(F)(F)F)nc2n1CCCN2c1c(C)cc(C)cc1C` [Example 78, Propyl-[2-trifluoromethyl-8-(2,4,6-trimethyl-phenyl)-5,6,7,8-tetrahydro-imidazo[1,2-a]pyrimidin-3-ylmethyl]-(3,3,3-trifluoro-propyl)-amine] was below 1000 nM. The value for `CCN(CCC1CC1)Cc1c(C(F)(F)F)nc2n1CCCN2c1c(C)cc(C)cc1C` [Example 88, (2-Cyclopropyl-ethyl)-ethyl-[2-trifluoromethyl-8-(2,4,6-trimethyl-phenyl)-5,6,7,8-tetrahydro-imidazo[1,2-a]pyrimidin-3-ylmethyl]-amine] was below 1000 nM. As for `CCCN(CC1CC1)C(=O)c1c(CC)nc2n(-c3c(C)cc(C)cc3C)c3ccccc3n12` [Example 141, 2-Ethyl-8-(2,4,6-trimethyl-phenyl)-8H-1,3a,8-triaza-cyclopenta[a]indene-3-carboxylic acid cyclopropylmethyl-propyl-amide], the figure is below 1000 nM; as for `Cc1cc(C)c(N2CCCn3c2nc(C(F)(F)F)c3CN(C)Cc2ccccc2)c(C)c1` [Example 65, Benzyl-methyl-[2-trifluoromethyl-8-(2,4,6-trimethyl-phenyl)-5,6,7,8-tetrahydro-imidazo[1,2-a]pyrimidin-3-ylmethyl]-amine], below 1000 nM; as for `CCCN(Cc1c(C(F)(F)F)nc2n(-c3c(C)cc(C)cc3C)c3ncccc3n12)CC(F)(F)F` [Example 222, Propyl-(2,2,2-trifluoro-ethyl)-[2-trifluoromethyl-8-(2,4,6-trimethyl-phenyl)-8H-1,3a,7,8-tetraaza-cyclopenta[α]inden-3-ylmethyl]-amine], below 1000 nM. For `CCCCN(CC)Cc1c(C(F)(F)F)nc2n(-c3c(C)cc(C)cc3C)c(Cl)cn12` [Example 346, Butyl-[6-chloro-2-trifluoromethyl-7-(2,4,6-trimethyl-phenyl)-7H-imidazo[1,2-a]imidazol-3-ylmethyl]-ethyl-amine], the inhibition constant (Ki) is below 100 nM.

On to `CC(C)c1ccc(-n2c3ccccc3n3c(CN(CC4CC4)CC(F)(F)C(F)(F)F)c(C(F)(F)F)nc23)c(Br)c1` [Example 191, [8-(2-Bromo-4-isopropyl-phenyl)-2-trifluoromethyl-8H-1,3a,8-triaza-cyclopenta[α]inden-3-ylmethyl]-cyclopropylmethyl-(2,2,3,3,3-pentafluoro-propyl)-amine], for which the Ki is below 1000 nM. As for `Cc1cc(C)c(-n2c3ncccc3n3c(CN(CCC4CC4)CC(F)(F)F)c(C(F)(F)F)nc23)c(C)c1` [Example 232, (2-Cyclopropyl-ethyl)-(2,2,2-trifluoro-ethyl)-[2-trifluoromethyl-8-(2,4,6-trimethyl-phenyl)-8H-1,3a,7,8-tetraaza-cyclopenta[α]inden-3-ylmethyl]-amine], the figure is below 1000 nM.

For the molecule `CCCN(CCC(F)(F)F)Cc1c(C(F)(F)F)nc2n1CCCN2c1c(C)cc(C)cc1Cl` [Example 116, [8-(2-Chloro-4,6-dimethyl-phenyl)-2-trifluoromethyl-5,6,7,8-tetrahydro-imidazo[1,2-a]pyrimidin-3-ylmethyl]-propyl-(3,3,3-trifluoro-propyl)-amine], the Ki is below 1000 nM. As for `CCCN(CCc1ccccc1)Cc1c(C(F)(F)F)nc2n1CCCN2c1c(C)cc(C)cc1Cl` [Example 121, [8-(2-Chloro-4,6-dimethyl-phenyl)-2-trifluoromethyl-5,6,7,8-tetrahydro-imidazo[1,2-a]pyrimidin-3-ylmethyl]-phenethyl-propyl-amine], the Ki is below 1000 nM.

On to `CCCCN(Cc1ccccc1)Cc1c(C(F)(F)F)nc2n(-c3c(C)cc(C)cc3C)c3ccccc3n12` [Example 176, Benzyl-butyl-[2-trifluoromethyl-8-(2,4,6-trimethyl-phenyl)-8H-1,3a,8-triaza-cyclopenta[α]inden-3-ylmethyl]-amine], for which the Ki is below 10000 nM. As for `CCN(CCC1CC1)Cc1c(C(F)(F)F)nc2n(-c3ccc(C(C)C)cc3Br)c3ccccc3n12` [Example 207, [8-(2-Bromo-4-isopropyl-phenyl)-2-trifluoromethyl-8H-1,3a,8-triaza-cyclopenta[α]inden-3-ylmethyl]-(2-cyclopropyl-ethyl)-ethyl-amine], the figure is below 10000 nM; as for `CCCN(Cc1c(C(F)(F)F)nc2n(-c3c(C)cc(C)cc3C)c3ncccc3n12)CC1CCC1` [Example 215, Cyclobutylmethyl-propyl-[2-trifluoromethyl-8-(2,4,6-trimethyl-phenyl)-8H-1,3a,7,8-tetraaza-cyclopenta[α]inden-3-ylmethyl]-amine], below 100 nM.

Take `Cc1cc(C)c(-n2c(Cl)cn3c(CN(CCC(F)(F)F)Cc4ccc(Cl)cc4)c(C(F)(F)F)nc23)c(C)c1` [Example 336, (4-Chloro-benzyl)-[6-chloro-2-trifluoromethyl-7-(2,4,6-trimethyl-phenyl)-7H-imidazo[1,2-a]imidazol-3-ylmethyl]-(3,3,3-trifluoro-propyl)-amine]: the Ki is below 10 nM. The value for `CCc1nc2n(-c3ccc(Cl)cc3Cl)c(Cl)cn2c1C(=O)N(CC1CC1)CC(F)(F)F` [Example 286, 6-Chloro-2-ethyl-7-(2,4-dichlorophenyl)-7H-imidazo[1,2-a]imidazole-3-carboxylic acid N-cyclopropylmethyl-N-(2,2,2-trifluoroethyl)amide] was below 10 nM; that for `Cc1cc(C)c(-n2c3ncccc3n3c(CN(CCc4ccccc4)CC(F)(F)F)c(C(F)(F)F)nc23)c(C)c1` [Example 234, Phenethyl-(2,2,2-trifluoro-ethyl)-[2-trifluoromethyl-8-(2,4,6-trimethyl-phenyl)-8H-1,3a,7,8-tetraaza-cyclopenta[α]inden-3-ylmethyl]-amine] was below 10000 nM; that for `Cc1cc(C)c(N2CCCn3c2nc(C(F)(F)F)c3CN(CCC2CC2)CCC(F)(F)F)c(C)c1` [Example 89, (2-Cyclopropyl-ethyl)-[2-trifluoromethyl-8-(2,4,6-trimethyl-phenyl)-5,6,7,8-tetrahydro-imidazo[1,2-a]pyrimidin-3-ylmethyl]-(3,3,3-trifluoro-propyl)-amine] was below 1000 nM. On to `CCCN(CC1CC1)C(=O)c1c(C)nc2n(-c3c(C)cc(C)cc3C)c3ccc(F)cc3n12` [Example 139, 5-Fluoro-2-methyl-8-(2,4,6-trimethyl-phenyl)-8H-1,3a,8-triaza-cyclopenta[α]indene-3-carboxylic acid cyclopropylmethyl-propyl-amide], for which the Ki was below 10000 nM.

In the case of `Cc1cc(C)c(-n2c3ncccc3n3c(CN(CC4CCC4)CC(F)(F)F)c(C(F)(F)F)nc23)c(C)c1` [Example 216, Cyclobutylmethyl-(2,2,2-trifluoro-ethyl)-[2-trifluoromethyl-8-(2,4,6-trimethyl-phenyl)-8H-1,3a,7,8-tetraaza-cyclopenta[α]inden-3-ylmethyl]-amine], the Ki is below 100 nM. On to `CCCN(CC1CC1)C(=O)c1c(CC)nc2n(-c3ccc(C(C)C)cc3Br)c(Cl)cn12` [Example 285, 6-Chloro-2-ethyl-7-(2-bromo-4-isopropylphenyl)-7H-imidazo[1,2-a]imidazole-3-carboxylic acid N-cyclopropylmethyl-N-propylamide], for which the inhibition constant (Ki) was below 1000 nM. For `Cc1cc(C)c(N2CCCn3c2nc(C(F)(F)F)c3CN(CC2CC2)CC(F)(F)C(F)(F)F)c(C)c1` [Example 74, Cyclopropylmethyl-(2,2,3,3,3-pentafluoro-propyl)-[2trifluoromethyl-8-(2,4,6-trimethyl-phenyl)-5,6,7,8-tetrahydro-imidazo[1,2-a]pyrimidin-3-ylmethyl]-amine], the Ki is below 100 nM. Turning to `CCCN(CC1CC1)C(=O)c1c(CC)nc2n1CCN2c1ccc(C(C)C)cc1Br` [Example 35, 7-(2-Bromo-4-isopropyl-phenyl)-2-ethyl-6,7-dihydro-5H-imidazo[1,2-a]imidazole-3-carboxylic acid cyclopropylmethyl-propyl-amide], the Ki was below 10000 nM.
